The values below come from patent US8153631B2, “Triazole compounds and uses related thereto” (Amgen Inc., priority 2003, dated 2012).

This experiment deals with T1, human HSD1 (recombinant HSD1) (Homo sapiens, UniProt P28845).
T1 construct: made in house
T1 sequence (P28845 whole entry): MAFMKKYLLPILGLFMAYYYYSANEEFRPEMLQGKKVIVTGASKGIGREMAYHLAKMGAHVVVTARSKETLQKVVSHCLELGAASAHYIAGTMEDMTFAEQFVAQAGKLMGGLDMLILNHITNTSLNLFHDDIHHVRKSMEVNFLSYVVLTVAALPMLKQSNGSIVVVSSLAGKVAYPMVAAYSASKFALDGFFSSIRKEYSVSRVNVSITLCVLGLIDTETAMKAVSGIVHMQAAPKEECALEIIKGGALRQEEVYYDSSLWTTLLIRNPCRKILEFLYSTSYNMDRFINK
In words: In vitro HSD1 activity inhibitory action, SPA of cortisone to cortisol conversion. The note with it: recombinant human HSD1 0.1 μg/ml, 500 μM NADPH, 16 nM 3H cortisone, room temperature 90 min, read-out: hHSD1 IC50. In kind it is biochemical. In outline: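 Baculovirus-expressed recombinant HSD1 (0.1 μg/ml) with 500 μM NADPH and 16 nM ³H-cortisone in 0.1% BSA/PBS, 90 min at room temperature. Stopped with anti-cortisol antibody, SPA beads and carbenoxolone, read after overnight incubation. Inhibition scaled between DMSO (0%) and 50 μM carbenoxolone (100%); IC50 by curve fitting.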
`Clc1cnc(OC2CCN(c3nnc(C4(c5ccccc5)CC4)n3C3CC3)CC2)c(Cl)c1` [Ex. 2-78]: the IC50 was under 10 nM.

Consider `CCn1c(N2CCC(Oc3ncc(Cl)cc3Cl)CC2)nnc1C1(c2ccccc2)CC1` [Ex. 2-79], for which the IC50 is under 10 nM.

Take `CC(C)n1c(N2CCC(Oc3ncc(Cl)cc3Cl)CC2)nnc1C1(c2ccccc2)CC1` [Ex. 2-80]: the 50% inhibitory concentration (IC50) was under 10 nM.

As to `Cn1c(N2CCC(Oc3ncc(Cl)cc3Cl)CC2)nnc1C1(c2ccccc2)CCCC1` [Ex. 2-81], the half-inhibitory concentration (IC50) was under 10 nM.

For the compound `Cc1ccc(C2(c3nnc(N4CCC(Oc5ncc(Cl)cc5Cl)CC4)n3C)CC2)cc1` [Ex. 2-82], the IC50 lay within 10 to 1000 nM.

Turning to `COc1ccc(C2(c3nnc(N4CCC(Oc5ncc(Cl)cc5Cl)CC4)n3C)CC2)cc1` [Ex. 2-83], the IC50 lay in the range of 10 to 1000 nM.

In the case of `Cn1c(N2CCN(Cc3ccc(Cl)cc3Cl)CC2)nnc1C1(c2ccccc2)CC1` [Ex. 2-84], the IC50 lay in the range of 10 to 1000 nM.

As for `Cn1c(N2CCN(c3ccccc3Cl)CC2)nnc1C1(c2ccccc2)CC1` [Ex. 2-85], the half-maximal inhibitory concentration (IC50) was under 10 nM.

As to `Cn1c(N2CCC(Oc3c(Cl)cncc3Cl)CC2)nnc1C1(c2ccccc2)CC1` [Ex. 2-86], the IC50 was 10 to 1000 nM.

For the compound `Cn1c(N2CCC(Oc3ncc(Cl)cc3Cl)CC2)nnc1C1(c2ccc(Cl)cc2Cl)CC1` [Ex. 2-88], the IC50 lay within 10 to 1000 nM.

As to `Cn1c(N2CCN(c3ccc(F)cc3)CC2)nnc1C1(c2ccccc2)CC1` [Ex. 2-89], the IC50 lay within 10 to 1000 nM.

As for `Cn1c(N2CCN(c3ccc(Cl)cc3)CC2)nnc1C1(c2ccccc2)CC1` [Ex. 2-90], the half-maximal inhibitory concentration (IC50) was in the range of 10 to 1000 nM.

As to `Cn1c(N2Cc3ccccc3C2)nnc1C1(c2ccccc2)CC1` [Ex. 2-91], the IC50 is under 10 nM.

`CCN(Cc1ccccc1)c1nnc(C2(c3ccccc3)CC2)n1C` [Ex. 2-92]: the IC50 was under 10 nM.

Consider `CN(c1ccccc1)c1nnc(C2(c3ccccc3)CC2)n1C` [Ex. 2-93], for which the IC50 was under 10 nM.

For `CN(c1ccc(Cl)cc1)c1nnc(C2(c3ccccc3)CC2)n1C` [Ex. 2-94], the IC50 was under 10 nM.

Regarding `CN(c1ccccn1)c1nnc(C2(c3ccccc3)CC2)n1C` [Ex. 2-95], the IC50 is under 10 nM.

With `CN(c1ccccc1)c1nnc(C2(c3ccc(F)cc3)CC2)n1C` [Ex. 2-96], the IC50 is under 10 nM.

What is called IC50 is the concentration that gives 50% inhibition.
